# Reference: ChEMBL document CHEMBL5505975, “Design, synthesis and biological evaluation of CDC20 inhibitors for treatment of triple-negative breast cancer” (Eur J Med Chem, 2024)
# Activity calls are given as the source filed them. No cut-off for these calls is given here.
# What was measured:
# [1] = Toxicity in female BALB/C mouse implanted with mouse 4T1 cells assessed as heart damage at 20 to 50 mg/kg, po administered every two days for 21 days by H and E staining based analysis; format: organism-based; conditions: in vivo, 504 h, dose 20-50 mg/kg, time 21 day
# MDA-MB-231 [2] = test: Cell cycle arrest in human MDA-MB-231 cells assessed as G2 phase cells at 20 uM incubated for 48 hrs by PI staining based flow cytometric analysis (reference value: 7.3%); format: functional
# [3] = Toxicity in female BALB/C mouse implanted with mouse 4T1 cells assessed as effect on monocytes at 20 to 50 mg/kg, iv administered every two days for 21 days by routine blood analysis; format: organism-based; conditions: in vivo, 504 h, dose 20-50 mg/kg, time 21 day
# [4] = Toxicity in female BALB/C mouse implanted with mouse 4T1 cells assessed as change in serum AST level at 20 to 50 mg/kg, po administered every two days for 21 days; format: organism-based; conditions: in vivo, 504 h, dose 20-50 mg/kg, time 21 day
# MDA-MB-231 [5] = test: Induction of apoptosis in human MDA-MB-231 cells assessed as viable cells at 5 uM incubated for 48 hrs by Annexin V-FITC/PI staining based flow cytometric analysis (reference value: 95.10%); format: functional; conditions: read-out: Activity
# MDA-MB-231 [6] = test: Cell cycle arrest in human MDA-MB-231 cells assessed as G1 phase cells at 10 uM incubated for 48 hrs by PI staining based flow cytometric analysis (reference value: 76.7%); format: functional
# 4T1 [7] = test: Antitumor activity against mouse 4T1 cells implanted in female BALB/C mouse assessed as inhibition of tumor growth at 20 to 50 mg/kg, po administered every two days for 21 days; format: functional, organism-based; conditions: dose 20-50 mg/kg, time 21.0 day
# MDA-MB-231 [8] = test: Cell cycle arrest in human MDA-MB-231 cells assessed as S phase cells at 20 uM incubated for 48 hrs by PI staining based flow cytometric analysis (reference value: 28.7%); format: functional
# [9] = Toxicity in female BALB/C mouse implanted with mouse 4T1 cells assessed as change in serum CREA level at 20 to 50 mg/kg, iv administered every two days for 21 days; format: organism-based; conditions: in vivo, 504 h, dose 20-50 mg/kg, time 21 day
# [10] = Toxicity in female BALB/C mouse implanted with mouse 4T1 cells assessed as change in RBC level at 20 to 50 mg/kg, iv administered every two days for 21 days by routine blood analysis; format: organism-based; conditions: in vivo, 504 h, dose 20-50 mg/kg, time 21 day
# MDA-MB-468 = test: Antiproliferative activity against human MDA-MB-468 cells assessed as reduction in cell viability incubated for 96 hrs by MTT assay; conditions: MDA-MB-468, 96 h
# MDA-MB-231 [11] = test: Cell cycle arrest in human MDA-MB-231 cells assessed as G2 phase cells at 20 uM incubated for 24 hrs by PI staining based flow cytometric analysis (reference value: 14.6%); format: functional
# [12] = Toxicity in female BALB/C mouse implanted with mouse 4T1 cells assessed as spleen damage at 20 to 50 mg/kg, po administered every two days for 21 days by H and E staining based analysis; format: organism-based; conditions: in vivo, 504 h, dose 20-50 mg/kg, time 21 day
# MDA-MB-231 [13] = test: Cell cycle arrest in human MDA-MB-231 cells assessed as S phase cells at 5 uM incubated for 48 hrs by PI staining based flow cytometric analysis (reference value: 16.0%); format: functional
# MDA-MB-231 [14] = test: Cell cycle arrest in human MDA-MB-231 cells assessed as G1 phase cells at 20 uM incubated for 48 hrs by PI staining based flow cytometric analysis (reference value: 76.7%); format: functional
# MDA-MB-231 [15] = test: Cell cycle arrest in human MDA-MB-231 cells assessed as G2 phase cells at 20 uM incubated for 48 hrs by PI staining based flow cytometric analysis (reference value: 14.6%); format: functional
# [16] = Toxicity in female BALB/C mouse implanted with mouse 4T1 cells assessed as effect on neutrophils at 20 to 50 mg/kg, iv administered every two days for 21 days by routine blood analysis; format: organism-based; conditions: in vivo, 504 h, dose 20-50 mg/kg, time 21 day
# [17] = Toxicity in female BALB/C mouse implanted with mouse 4T1 cells assessed as change in RBC level at 20 to 50 mg/kg, po administered every two days for 21 days by routine blood analysis; format: organism-based; conditions: in vivo, 504 h, dose 20-50 mg/kg, time 21 day
# MDA-MB-231 [18] = test: Induction of apoptosis in human MDA-MB-231 cells assessed as late apoptotic cells at 20 uM incubated for 48 hrs by Annexin V-FITC/PI staining based flow cytometric analysis (reference value: 1.06%); format: functional
# MDA-MB-231 [19] = test: Induction of autophagy in human MDA-MB-231 cells assessed as increase in LC3BII expression level incubated for 48 hrs by Western blot analysis; format: functional, cell-based
# 4T1 [20] = test: Antitumor activity against mouse 4T1 cells implanted in female BALB/C mouse assessed as inhibition of tumor growth at 20 to 50 mg/kg, iv administered every two days for 21 days; format: functional, organism-based; conditions: dose 20-50 mg/kg, time 21.0 day
# [21] = Toxicity in female BALB/C mouse implanted with mouse 4T1 cells assessed as kidney damage at 20 to 50 mg/kg, iv administered every two days for 21 days by H and E staining based analysis; format: organism-based; conditions: in vivo, 504 h, dose 20-50 mg/kg, time 21 day
# [22] = Toxicity in female BALB/C mouse implanted with mouse 4T1 cells assessed as change in serum AST level at 20 to 50 mg/kg, iv administered every two days for 21 days; format: organism-based; conditions: in vivo, 504 h, dose 20-50 mg/kg, time 21 day
# [23] = Toxicity in female BALB/C mouse implanted with mouse 4T1 cells assessed as change in serum ALT level at 20 to 50 mg/kg, iv administered every two days for 21 days; format: organism-based; conditions: in vivo, 504 h, dose 20-50 mg/kg, time 21 day
# [24] = Toxicity in female BALB/C mouse implanted with mouse 4T1 cells assessed as change in WBC level at 20 to 50 mg/kg, po administered every two days for 21 days by routine blood analysis; format: organism-based; conditions: in vivo, 504 h, dose 20-50 mg/kg, time 21 day
# [25] = Toxicity in female BALB/C mouse implanted with mouse 4T1 cells assessed as change in serum CK level at 20 to 50 mg/kg, po administered every two days for 21 days; format: organism-based; conditions: in vivo, 504 h, dose 20-50 mg/kg, time 21 day
# [26] = Toxicity in female BALB/C mouse implanted with mouse 4T1 cells assessed as lung damage at 20 to 50 mg/kg, iv administered every two days for 21 days by H and E staining based analysis; format: organism-based; conditions: in vivo, 504 h, dose 20-50 mg/kg, time 21 day
# 4T1 [27] = test: Antitumor activity against mouse 4T1 cells implanted in female BALB/C mouse assessed as inhibition of tumor weight at 50 mg/kg, po administered every two days for 21 days relative to control; format: functional, organism-based; conditions: time 21.0 day
# MDA-MB-231 [28] = test: Cell cycle arrest in human MDA-MB-231 cells assessed as G1 phase cells at 20 uM incubated for 72 hrs by PI staining based flow cytometric analysis (reference value: 56.7%); format: functional
# 4T1 [29] = test: Antitumor activity against mouse 4T1 cells implanted in female BALB/C mouse assessed as inhibition of tumor weight at 20 mg/kg, po administered every two days for 21 days relative to control; format: functional, organism-based; conditions: time 21.0 day
# MDA-MB-231 [30] = test: Cell cycle arrest in human MDA-MB-231 cells assessed as S phase cells at 20 uM incubated for 48 hrs by PI staining based flow cytometric analysis (reference value: 16.0%); format: functional
# MDA-MB-231 [31] = test: Induction of apoptosis in human MDA-MB-231 cells assessed as early apoptotic cells at 2.5 uM incubated for 48 hrs by Annexin V-FITC/PI staining based flow cytometric analysis (reference value: 2.25 %); format: functional
# MDA-MB-231 [32] = test: Induction of apoptosis in human MDA-MB-231 cells assessed as viable cells at 20 uM incubated for 48 hrs by Annexin V-FITC/PI staining based flow cytometric analysis (reference value: 95.10%); format: functional; conditions: read-out: Activity
# MDA-MB-231 [33] = test: Cell cycle arrest in human MDA-MB-231 cells assessed as S phase cells at 20 uM incubated for 24 hrs by PI staining based flow cytometric analysis (reference value: 28.7%); format: functional
smiles,measurement,setting,value
CCC(=O)NC(n1cnc2c(Nc3cc(OC)c(OC)c(OC)c3)nc(N)nc21)C(Cl)(Cl)Cl (centres undefined),Activity,[1],Non-Toxic
same,Activity,MDA-MB-231 [2],29.4%
same,Activity,[3],Non-Toxic
same,Activity,[4],Non-Toxic
same,viability at 5 µM,MDA-MB-231 [5],92.8%
same,Activity,MDA-MB-231 [6],77.5%
same,Activity,4T1 [7],Active
same,Activity,MDA-MB-231 [8],13.3%
same,Activity,[9],Non-Toxic
same,Activity,[10],Non-Toxic
same,IC50,MDA-MB-468,7.24 µM
same,Activity,MDA-MB-231 [11],40.1%
same,Activity,[12],Non-Toxic
same,Activity,MDA-MB-231 [13],28.6%
same,Activity,MDA-MB-231 [14],59%
same,Activity,MDA-MB-231 [15],45.7%
same,Activity,[16],Non-Toxic
same,Activity,[17],Non-Toxic
same,Activity,MDA-MB-231 [18],1.96%
same,Activity,MDA-MB-231 [19],Dose-Dependent Effect
same,Activity,4T1 [20],Active
same,Activity,[21],Non-Toxic
same,Activity,[22],Non-Toxic
same,Activity,[23],Non-Toxic
same,Activity,[24],Non-Toxic
same,Activity,[25],Non-Toxic
same,Activity,[26],Non-Toxic
same,Activity,4T1 [27],inactive
same,Activity,MDA-MB-231 [28],36.4%
same,Activity,4T1 [29],inactive
same,Activity,MDA-MB-231 [30],11.6%
same,Activity,MDA-MB-231 [31],1.34%
same,viability at 20 µM,MDA-MB-231 [32],91.7%
same,Activity,MDA-MB-231 [33],27.6%
